Source: PubChem BioAssay AID1963867 (Molecular Pharmacology Branch, DTP, NCI, 2024)
pIC50: −log10 of the molar value.

Test system: KRAS-mutant PDC tumor spheroid with HUVEC/MSC, viability
Assay: Anticancer human tumor 327498-153-R-J2-PDC patient-derived uterine carcinosarcoma cell line growth inhibition [KRAS2]
Conditions: for pIC50: curve of first compound; for viability, T/C: stronger effect = lower value; active means viability on the fitted dose curve at most 10% of control; inactive means the rest
Excerpt: Multicellular complex tumor spheroid response to RAS pathway inhibitors in combination with a targeted agents in patient-derived cell lines with oncogenic KRAS variants from multiple cancer types
A high-throughput screen of multi-cell type tumor spheroids was designed to identify active combinations of targeted small molecules and KRAS pathway inhibitors. Complex spheroids include a stromal component modeled by human endothelial cells (HUVEC) and fibroblasts modeled by human mesenchymal stem cells (MSCs). The concentration ranges selected for each drug and investigational agent were based upon clinically achievable concentrations if the clinical Cmax of the agent was known.
Compounds. The drugs and investigational agents: BI-3406 (NSC825286), BAY-293 (NSC824723), batoprotafib (TNO155; NSC825523), sotorasib (AMG 510; NSC818433), MRTX1257 (NSC819558), elimusertib (BAY 1895344; NSC800525), molibresib (GSK525762; NSC774829), temuterkib (LY3214996; NSC803410), venetoclax (NSC766270), alisertib (NSC759677), olaparib (NSC753686), talazoparib (NSC767125), erdafitinib (NSC781556), ipatasertib (NSC767898), cabozantinib (NSC761068), nintedanib (NSC756659), abemaciclib (NSC768073), docetaxel (NSC628503), trametinib (NSC758246), and sapanisertib (NSC764658) were obtained from the National Cancer Institute (NCI) Developmental Therapeutics Program Chemical Repository. The FDA-approved anticancer drug set is available from the Developmental Therapeutics Program. […] The stock solutions were prepared in dimethyl sulfoxide (DMSO, Sigma-Aldrich, St. Louis, MO, cat. D2650) at 800-fold the tested concentration and stored at -70 degrees C prior to their use. All drugs and investigational agents were tested over a range starting from a high concentration at or near the clinical Cmax and decreasing in half-log increments. If the clinical Cmax for an agent had not been determined, the highest concentration tested was 10 microM.
Cell Culture. All cells were maintained in an incubator at 37 degrees C and 5% CO2 with 95% humidity. The PDC lines were cultured according to standard operating procedures established by the NCI PDMR (https://pdmr.cancer.gov/sops/default.htm). Briefly, all PDCs were thawed and cultured in Matrigel-coated flasks prepared with a working solution of 1X Ham's F-12 nutrient mix, without supplementation (Invitrogen, Waltham, MA, cat. 11765054), 100 U/mL penicillin-streptomycin (Invitrogen, cat. 15140122), and 2.5% Matrigel (Corning Inc., Corning, NY, cat. 354248) for the first three passages. All PDCs were cultured in complete DMEM/F-12 media containing advanced DMEM/F-12 (Invitrogen, cat. 12634028), 4.9% defined fetal bovine serum, heat inactivated (HyClone Laboratories Inc., Logan, UT, cat. SH30070.03HI), 389 ng/mL hydrocortisone (Sigma-Aldrich, cat. H4001), 9.7 ng/mL human EGF recombinant protein (Invitrogen, cat. PHG0313), 23.4 microg/mL adenine (Sigma-Aldrich, cat. A2786), 97.3 U/mL penicillin-streptomycin (Invitrogen, cat. 15140122), 1.9 mM L-glutamine (Invitrogen, cat. 25030081), and 9.7 microM Y-27632 dihydrochloride (Tocris Bioscience, Bristol, United Kingdom, cat. 1254). The PDCs were cultured in complete DMEM/F12 media without 9.7 microM Y-27632 dihydrochloride for at least two passages prior to the screen. The established cell line HOP-62 was cultured in RPMI 1640 medium, HEPES (Invitrogen, cat. 22400105) with 10% defined fetal bovine serum (HyClone Laboratories Inc., cat. SH30070.03) and 2 mM L-glutamine (Invitrogen, cat. 25030081). The pooled donor HUVEC were cultured in endothelial cell growth medium 2 (PromoCell, Heidelberg, Germany, cat. C-22011) and the hMSC were cultured in mesenchymal stem cell growth medium 2 (PromoCell, cat. C-28009). For all experiments, HUVEC and hMSC were used at passages </=5, while the malignant cell lines were used at passages </=15. […]

[1] = second compound 0.1 µM, first compound 0.0316 µM
[2] = second compound 0.316 µM, first compound 0.0316 µM
[3] = second compound 1 µM, first compound 0.0316 µM
[4] = second compound 3.16 µM, first compound 0.0316 µM
[5] = second compound 10 µM, first compound 0.0316 µM
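Further: spheroids exposed to agents for seven days before reading.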
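Wherever viability, T/C is given: 100% = DMSO vehicle wells so lower means fewer viable cells.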

CC(=O)Nc1cccc(-n2c(=O)n(C3CC3)c(=O)c3c(Nc4ccc(I)cc4F)n(C)c(=O)c(C)c32)c1 + CNCc1ccccc1-c1csc(C(C)Nc2nc(C)nc3cc(OC)c(OC)cc23)c1
8.36: pIC50 (second compound 0.1 µM)
> 10.00: pIC50 (second compound 3.16 µM) | pIC50 (second compound 10 µM)
8.63: pIC50 (second compound 1 µM)
active: viability, T/C (second compound 3.16 µM, first compound 0.00316 µM) 0.12% | viability, T/C (second compound 3.16 µM, first compound 0.01 µM) 5.68% | viability, T/C [4] 2.54% | viability, T/C (second compound 10 µM, first compound 0.0001 µM) 0.18% | viability, T/C (second compound 10 µM, first compound 0.000316 µM) 0.87% | viability, T/C (second compound 10 µM, first compound 0.001 µM) 0.14% | viability, T/C (second compound 10 µM, first compound 0.00316 µM) 0.14% | viability, T/C (second compound 10 µM, first compound 0.01 µM) 0.15% | viability, T/C [5] 0.21%
inactive: viability, T/C (second compound 0.1 µM, first compound 0.0001 µM) 84% | viability, T/C (second compound 0.1 µM, first compound 0.000316 µM) 67% | viability, T/C (second compound 0.1 µM, first compound 0.001 µM) 61.8% | viability, T/C (second compound 0.1 µM, first compound 0.00316 µM) 56.1% | viability, T/C (second compound 0.1 µM, first compound 0.01 µM) 43.9% | viability, T/C [1] 29.6% | viability, T/C (second compound 0.316 µM, first compound 0.0001 µM) 71.6% | viability, T/C (second compound 0.316 µM, first compound 0.000316 µM) 67.8% | viability, T/C (second compound 0.316 µM, first compound 0.001 µM) 58.4% | viability, T/C (second compound 0.316 µM, first compound 0.00316 µM) 51.3% | viability, T/C (second compound 0.316 µM, first compound 0.01 µM) 48.5% | viability, T/C [2] 27% | viability, T/C (second compound 1 µM, first compound 0.0001 µM) 70.9% | viability, T/C (second compound 1 µM, first compound 0.000316 µM) 60.8% | viability, T/C (second compound 1 µM, first compound 0.001 µM) 53.9% | viability, T/C (second compound 1 µM, first compound 0.00316 µM) 49.3% | viability, T/C (second compound 1 µM, first compound 0.01 µM) 41.9% | viability, T/C [3] 23.6% | viability, T/C (second compound 3.16 µM, first compound 0.0001 µM) 37.2% | viability, T/C (second compound 3.16 µM, first compound 0.000316 µM) 38.7% | viability, T/C (second compound 3.16 µM, first compound 0.001 µM) 22.7%
8.33: pIC50 (second compound 0.316 µM)

O=C(c1cc(Cc2n[nH]c(=O)c3ccccc23)ccc1F)N1CCN(C(=O)C2CC2)CC1 + C=CC(=O)N1CCN(c2nc(=O)n(-c3c(C)ccnc3C(C)C)c3nc(-c4c(O)cccc4F)c(F)cc23)C(C)C1
6.15: pIC50 (second compound 0.316 µM)
inactive: viability, T/C [1] 60.2% | viability, T/C (second compound 0.1 µM, first compound 0.1 µM) 57.3% | viability, T/C (second compound 0.1 µM, first compound 0.316 µM) 65.3% | viability, T/C (second compound 0.1 µM, first compound 1 µM) 48.8% | viability, T/C (second compound 0.1 µM, first compound 3.16 µM) 23.6% | viability, T/C (second compound 0.1 µM, first compound 10 µM) 16.3% | viability, T/C [2] 59.5% | viability, T/C (second compound 0.316 µM, first compound 0.1 µM) 59.4% | viability, T/C (second compound 0.316 µM, first compound 0.316 µM) 57.5% | viability, T/C (second compound 0.316 µM, first compound 1 µM) 46.8% | viability, T/C (second compound 0.316 µM, first compound 3.16 µM) 21.9% | viability, T/C (second compound 0.316 µM, first compound 10 µM) 15.2% | viability, T/C [3] 66.3% | viability, T/C (second compound 1 µM, first compound 0.1 µM) 60.1% | viability, T/C (second compound 1 µM, first compound 0.316 µM) 56% | viability, T/C (second compound 1 µM, first compound 1 µM) 46.2% | viability, T/C (second compound 1 µM, first compound 3.16 µM) 26.5% | viability, T/C (second compound 1 µM, first compound 10 µM) 16.4% | viability, T/C [4] 66% | viability, T/C (second compound 3.16 µM, first compound 0.1 µM) 61.2% | viability, T/C (second compound 3.16 µM, first compound 0.316 µM) 51.7% | viability, T/C (second compound 3.16 µM, first compound 1 µM) 46.4% | viability, T/C (second compound 3.16 µM, first compound 3.16 µM) 22.6% | viability, T/C (second compound 3.16 µM, first compound 10 µM) 18.2% | viability, T/C [5] 49.5% | viability, T/C (second compound 10 µM, first compound 0.1 µM) 48.2% | viability, T/C (second compound 10 µM, first compound 0.316 µM) 47.3% | viability, T/C (second compound 10 µM, first compound 1 µM) 36.3% | viability, T/C (second compound 10 µM, first compound 3.16 µM) 24.8% | viability, T/C (second compound 10 µM, first compound 10 µM) 18.9%
6.01: pIC50 (second compound 0.1 µM)
> 7.50: pIC50 (second compound 10 µM)
6.31: pIC50 (second compound 3.16 µM)
6.23: pIC50 (second compound 1 µM)
